{
  "source": "patent US9314541B2",
  "about": "“In vivo imaging method for cancer” (GE Healthcare Limited, priority 2010, dated 2016)",
  "key": {"[1]": {"details": "cited from earlier work"}, "PBR": {"biological_target": "PBR (Homo sapiens, UniProt P30536)", "sequence (P30536 whole entry, species assumed)": "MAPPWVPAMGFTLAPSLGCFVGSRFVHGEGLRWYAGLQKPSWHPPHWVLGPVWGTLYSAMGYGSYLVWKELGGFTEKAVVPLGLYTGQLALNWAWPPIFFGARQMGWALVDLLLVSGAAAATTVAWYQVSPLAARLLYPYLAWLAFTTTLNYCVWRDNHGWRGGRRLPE", "details": "in vivo; cited from earlier work"}, "[2]": {"assay": "In vivo biodistribution method", "set-up": "species or system Wistar rats", "details": "for OB:Str 30 min: ratio olfactory bulb to striatum, 30 min after injection", "experimental": "Imaging agents of the invention were tested in an in vivo biodistribution model.\nAdult male Wistar rats (200-300 g) were injected with 1-3 MBq of test compound via the lateral tail vein. At 2, 10, 30 or 60 min (n=3) after injection, rats were euthanised and tissues or fluids were sampled for radioactive measurement on a gamma counter."}, "Wistar rat heart PBR": {"biological_target": "T1, Wistar rat heart PBR (Rattus norvegicus, UniProt P16257)", "T1 construct": "from tissue; host or cells: Wistar rat heart", "assay": "In vitro potency assay: competition against 0.3 nM [3H]PK-11195 for binding to PBR", "details": "non-radioactive analogues tested; vs 0.3 nM [3H]PK-11195; 50 mM Tris-HCl pH 7.4, 10 mM MgCl2, 15 minutes at 25° C.", "method": "Non-radioactive analogues of in vivo imaging agents of the invention were tested.\nThe reaction was carried out in 50 mM Tris-HCl, pH 7.4 10 mM MgCl2 for 15 minutes at 25° C."}, "[3]": {"details": "compared with 11C-PK11195; cited from earlier work"}},
  "data": [
    {"smiles": "CC[C@H](C)N([11CH3])C(=O)c1cc2ccccc2c(-c2ccccc2Cl)n1", "note": "[[^11C]PK11195]", "values": [
      {"measurement": "plasma protein binding", "setting": "[1]", "value": "high and variable"},
      {"measurement": "brain uptake", "setting": "PBR", "value": "relatively low and variable"},
      {"measurement": "levels of non-specific binding", "setting": "PBR", "value": "relatively high"}
    ]},
    {"smiles": "CCN(CC)C(=O)C1CC(C)Cc2c1c1ccccc1n2CC[18F]", "note": "(stereo not shown) [compound 11]", "values": [
      {"measurement": "OB:Str 30 min", "setting": "[2]", "value": 3.50},
      {"measurement": "Ki", "setting": "Wistar rat heart PBR", "value": 2.12, "unit": "nM"}
    ]},
    {"smiles": "O=C(C1CCCc2c1c1ccccc1n2CC[18F])N1CCCCCC1", "note": "(stereo not shown) [compound 9]", "values": [
      {"measurement": "Brain 2 min (% ID/g)", "setting": "[2]; brain, 2 min after injection via lateral tail vein, 1-3 MBq, adult male Wistar rats", "value": 0.56, "unit": "% ID/g"},
      {"measurement": "OB 30 min (% ID/g)", "setting": "[2]; olfactory bulb, 30 min after injection via lateral tail vein, adult male Wistar rats", "value": 0.41, "unit": "% ID/g"},
      {"measurement": "OB:Str 30 min", "setting": "[2]", "value": 3.72}
    ]},
    {"smiles": "CCN(CC)C(=O)Cc1c(-c2ccc(OCC[18F])cc2)nn2c(C)cc(C)nc12", "note": "[^18F-DPA-714]", "values": [
      {"measurement": "bioavailability", "setting": "[3]", "value": "increased"}
    ]},
    {"smiles": "CN(Cc1ccccc1)C(=O)C1CCCc2c1c1ccccc1n2CC[18F]", "note": "(stereo not shown) [compound 7]", "values": [
      {"measurement": "OB:Str 30 min", "setting": "[2]", "value": 3.40}
    ]}
  ]
}
